According to US7718808B2, “Thiazole derivatives” (Kyowa Hakko Kirin Co., Ltd., priority 2003, dated 2010):

Assays:
[1] = system: MPTP-treated common marmoset; experiment: Effect in Parkinson's disease model (MPTP-treated common marmoset), motor disability score; format: in vivo; details: oral administration, 10 mg/kg; MPTP-treated common marmosets; scored at 30 minute intervals for 8 hours
From the text: Parkinson's disease is a disorder based on the degeneration and lack of dopaminergic neurons in the nigro-striatal pathway. In the primates, treatment with a dopamine neurotoxin, that is MPTP, causes selective degeneration and lack of the dopaminergic neurons in the nigro-striatal pathway and causes a symptom such as akinesia and muscular rigidity. The MPTP-treated primate is known as a Parkinson's disease model (Proceedings of the National Academy of Science USA, Vol. 80, p. 4546, 1983). Also, common marmoset belongs to Anthropoidea, and is known to have parkinsonism caused by MPTP like others of Anthropoidea (Neuroscience Letter, Vol. 57, p. 37, 1985).
The experiment was carried out using four male and female common marmosets of 2 or 3 years old (body weight, 300 to 375 g, by Nippon Clea) per group. […] The motor disability of the animals before the administration of the test compound was scored, and this was compared with the motor disability score after orally administration of the test compound (Compound 1) in a dose of 10 mg/kg. As, the parkinsonian symptoms, the motor disabilities were scored at intervals of 30 minutes for 8 hours, by observation through a one-way viewing window. The spontaneous locomotor activity was measured at intervals of 30 minutes for 12 hours by a computer-controlled automatic measuring apparatus. […]

[2] = target: T1, Rat Adenosine A2A Receptor (Rattus norvegicus, UniProt P30543); experiment: Adenosine A2A receptor binding test (3H-CGS21680 binding, rat corpus striatum); details: test compound 10^−7 mol/L, 25° C., 120 minutes, read-out: Rat Adenosine A2A Receptor Binding Inhibition rate (%) (10^−7 mol/L)
T1 construct: tissue Nippon SLC (animals); host or cells: rat (SD) corpus striatum membrane homogenate
T1 sequence (P30543 whole entry): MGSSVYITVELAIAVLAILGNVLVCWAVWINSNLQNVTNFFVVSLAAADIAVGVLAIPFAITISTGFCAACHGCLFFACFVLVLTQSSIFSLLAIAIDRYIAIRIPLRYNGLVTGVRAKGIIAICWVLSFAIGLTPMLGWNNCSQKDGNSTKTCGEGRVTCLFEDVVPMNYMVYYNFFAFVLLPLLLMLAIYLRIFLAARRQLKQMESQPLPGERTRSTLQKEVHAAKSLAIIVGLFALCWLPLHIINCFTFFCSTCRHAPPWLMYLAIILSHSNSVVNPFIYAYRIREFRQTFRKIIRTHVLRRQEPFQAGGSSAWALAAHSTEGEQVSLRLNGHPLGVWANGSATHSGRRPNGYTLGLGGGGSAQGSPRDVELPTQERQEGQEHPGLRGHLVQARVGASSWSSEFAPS
Description: This test was carried but in a similar manner to a Bruns et al's method (Molecular Pharmacology, Vol. 29, p. 331, 1986).
Corpus striatum of rats (SD rat, by Nippon SLC) was suspended in 50 mL of an ice-cooled 50 mmol/L tris(hydroxymethyl)aminomethane hydrochloride (Tris-HCl) buffer (pH 7.7) using a polytron homogenizer (by Kinematica). The resulting homogenate was centrifuged (48,000×g, 20 minutes), and the resulting precipitate was again suspended by adding the same amount of a 50 mmol/L Tris-HCl buffer, followed by centrifugation under the same condition. The resulting final precipitate was suspended by adding a 50 mmol/L Tris-HCl buffer [containing 10 mmol/L magnesium chloride, adenosine deaminase 0.02 units/mg tissue (by Sigma)] so that the tissue concentration was 5 mg (wet weight)/mL.
To 100 μL of the above purified tissue suspension, were added 80 μL (final concentration […]) of tritium-labeled CGS-21680 {^3H-2-[p-(2-carboxyethyl)phenethylamino]-5′-(N-ethylcarboxamido)-adenosine: 40 curies/mmol; by New England Nuclear [The Journal of Pharmacology and Experimental Therapeutics, Vol. 251, p. 888, 1989]} and 20 μL of a test compound solution (10^−7 mol/L; a solution of a test compound in DMSO was diluted with Tris-HCl buffer). The resulting mixture was allowed to stand at 25° C. for 120 minutes, followed by rapid suction filtration through a glass fiber paper filter (GF/C; by Whatman). The filter was immediately washed three times with 200 μL of an ice-cooled 50 mmol/L Tris-HCl buffer. The glass fiber paper filter was transferred into a vial, Microscinti (by Perkin Elmer) was added thereto, and the radioactivity level was measured with Topcount (by Perkin Elmer).
The inhibition rate of the test compound to the adenosine A2A receptor binding (^3H-CGS21680 binding) was calculated according to the following formula.
Amount of total binding means the ^3H-CGS21680 binding radioactivity content in the absence of the test compound. Amount of non-specific binding means the ^3H-CGS21680 binding radioactivity content in the presence of 100 μmol/L cyclopentyladenosine (CPA; by Sigma). Amount of binding in the presence of test compound means the ^3H-CGS21680 binding radioactivity content in the presence of 10^−7 mol/L of the test compound.

Compound	remission of the parkinsonian symptoms (motor disability score before vs after administration) [1]	inhibition at 0.1 µM [2]	melting point
O=C(Nc1nc(-c2ccco2)c(-c2ccncc2)s1)c1ccncc1 [Compound 1, N-[4-(2-Furyl)-5-(4-pyridyl)thiazol-2-yl]pyridine-4-carboxamide]	effective for remission of the parkinsonian symptoms	90%	
O=C(c1ccccn1)c1sc(NC(=O)C2CC2)nc1-c1ccco1 [Compound 191, N-[4-(2-Furyl)-5-(pyridin-2-ylcarbonyl)thiazol-2-yl]cyclopropanecarboxamide]		98%	191 to 192 °C
O=C(Nc1nc(-c2ccco2)c(C(=O)C2CCOCC2)s1)c1ccncc1 [Compound 455, N-[4-(2-Furyl)-5-(tetrahydropyran-4-ylcarbonyl)thiazol-2-yl]pyridine-4-carboxamide]		100%	202 to 209 °C
N#Cc1ccc(C(=O)Nc2nc(-c3ccco3)c(C(=O)c3ccccn3)s2)cc1 [Compound 206, 4-Cyano-N-[4-(2-furyl)-5-(pyridin-2-ylcarbonyl)thiazol-2-yl]benzamide]		95%	232 to 235 °C
CC(C)n1nc(-c2sc(NC(=O)c3ccncc3)nc2-c2ccco2)ccc1=O [Compound 131, N-[4-(2-Furyl)-5-(1-isopropyl-6-oxo-1,6-dihydropyridazin-3-yl)thiazol-2-yl]pyridine-4-carboxamide]		99%	190 to 194 °C
N#Cc1ccc(C(=O)Nc2nc(-c3ccco3)c(C(=O)C3CCOCC3)s2)o1 [Compound 515, 5-Cyano-N-[4-(2-furyl)-5-(tetrahydropyran-4-ylcarbonyl)thiazol-2-yl]furan-2-carboxamide]		95%	222 to 223 °C
O=C(Nc1nc(-c2ccco2)c(C(=O)c2ccccc2)s1)c1ccc(=O)[nH]c1 [Compound 149, N-[5-Benzoyl-4-(2-furyl)thiazol-2-yl]-2-oxo-1,2-dihydropyridine-5-carboxamide]		91%	> 300 °C
